Reference: ChEMBL document CHEMBL4680164, “Synthesis and antimycobacterial activity of thiazolidine-2,4-dione based derivatives with halogenbenzohydrazones and pyridinecarbohydrazones substituents” (Eur J Med Chem, 2020)
Values after ≈ are worked out from the molar mass of the structure shown.

Columns and labels:
[1] = system: Mycobacterium tuberculosis; assay: Antitubercular activity against Mycobacterium tuberculosis H37Ra ATCC 25177 assessed as reduction in microbial growth after 7 days by Alamar blue assay; type: functional; settings: H37Ra ATCC 25177, 168 h, time 7 day
[2] = Selectivity index, ratio of IC50 for cytotoxicity against African green monkey Vero cells to MIC for antimycobacterial activity against Mycobacterium tuberculosis H37Ra ATCC 25177; type: toxicity, cell-based; settings: read-out: Selectivity Index
[3] = Stability of compound in acetonitrile at 6.05 10^-5mol/L after 48 hrs by HPLC-DAD method; type: physicochemical; settings: at 60.5 µM
Vero = assay: Cytotoxicity against African green monkey Vero cells incubated for 24 hrs by MTT assay; type: cell-based; settings: Chlorocebus sabaeus
[4] = Stability of compound in acetonitrile assessed as retention time at 6.05 10^-5mol/L up to 48 hrs by HPLC-DAD method; type: physicochemical
[5] = Stability of compound in acetonitrile at 4.52 10^-5mol/L after 48 hrs by HPLC-DAD method; type: physicochemical; settings: at 45.2 µM
[6] = Stability of compound in acetonitrile assessed as retention time at 4.52 10^-5mol/L up to 48 hrs by HPLC-DAD method; type: physicochemical
[7] = Stability of compound in acetonitrile assessed as retention time at 4.81 10^-5mol/L up to 48 hrs by HPLC-DAD method; type: physicochemical
[8] = Stability of compound in acetonitrile at 4.81 10^-5mol/L after 48 hrs by HPLC-DAD method; type: physicochemical; settings: at 48.1 µM
[9] = Stability of compound in acetonitrile at 4.76 10^-5mol/L after 48 hrs by HPLC-DAD method; type: physicochemical; settings: at 47.6 µM
[10] = Stability of compound in acetonitrile assessed as retention time at 6 10^-5mol/L up to 48 hrs by HPLC-DAD method; type: physicochemical
[11] = Stability of compound in acetonitrile at 6 10^-5mol/L after 48 hrs by HPLC-DAD method; type: physicochemical; settings: at 60 µM
[12] = Stability of compound in acetonitrile assessed as retention time at 4.23 10^-5mol/L up to 48 hrs by HPLC-DAD method; type: physicochemical
[13] = Stability of compound in acetonitrile at 4.23 10^-5mol/L after 48 hrs by HPLC-DAD method; type: physicochemical; settings: at 42.3 µM
[14] = Stability of compound in acetonitrile at 6.48 10^-5mol/L after 48 hrs by HPLC-DAD method; type: physicochemical; settings: at 64.8 µM
[15] = Stability of compound in acetonitrile assessed as retention time at 6.48 10^-5mol/L up to 48 hrs by HPLC-DAD method; type: physicochemical

Work on `O=C(CC1SC(=O)NC1=O)Oc1cccc(/C=N/NC(=O)c2cccc(Cl)c2)c1` (stereo not drawn) yielded an MIC [1] of 128 µg/mL.
`O=C(CC1SC(=O)NC1=O)Oc1ccc(/C=N/NC(=O)c2cccnc2)cc1Br` (stereo not drawn) gave an MIC [1] of 512 µg/mL.
Compound `O=C(CC1SC(=O)NC1=O)Oc1ccc(/C=N/NC(=O)c2ccc(Cl)cc2Cl)cc1` (stereo not drawn) has an MIC [1] of 64 µg/mL.
With `O=C(/C=C1/SC(=O)NC1=O)Oc1ccccc1/C=N/NC(=O)c1cccc(Cl)c1` the MIC [1] was 64 µg/mL.
`COc1cc(/C=N/NC(=O)c2cccc(Cl)c2)ccc1OC(=O)/C=C1/SC(=O)NC1=O` gave an MIC [1] of 128 µg/mL.
Work on `O=C(CC1SC(=O)NC1=O)Oc1cccc(/C=N/NC(=O)c2ccc(Cl)cc2Cl)c1` (stereo not drawn) yielded an MIC [1] of 128 µg/mL.
Work on `COc1cc(/C=N/NC(=O)c2ccc(Cl)cc2Cl)ccc1OC(=O)CC1SC(=O)NC1=O` (stereo not drawn) yielded an MIC [1] of 128 µg/mL.
With `COc1cc(/C=N/NC(=O)c2cccc(Cl)c2)ccc1OC(=O)CC1SC(=O)NC1=O` (stereo not drawn) the MIC [1] was 128 µg/mL.
With `O=C(CC1SC(=O)NC1=O)Oc1ccc(/C=N/NC(=O)c2cccnc2)cc1` (stereo not drawn) the MIC [1] was 512 µg/mL.
For `O=C(/C=C1/SC(=O)NC1=O)Oc1ccccc1/C=N/NC(=O)c1ccncc1`, the selectivity ratio [2] was over 50, the Stabilty [3] was “Stable” and the MIC [1] was 4 µg/mL. For the same compound, the IC50 (Vero) was over 200 µg/mL and the Retention_time [4] was 4.36 min.
With `CCOc1cc(/C=N/NC(=O)c2cccnc2)ccc1OC(=O)CC1SC(=O)NC1=O` (stereo not drawn) the MIC [1] was over 512 µg/mL.
`O=C(/C=C1/SC(=O)NC1=O)Oc1ccc(/C=N/NC(=O)c2cccc(Cl)c2)cc1` showed an MIC [1] of 128 µg/mL.
For `CCOc1cc(/C=N/NC(=O)c2ccccn2)ccc1OC(=O)CC1SC(=O)NC1=O` (stereo not drawn), the MIC [1] was over 512 µg/mL.
`O=C(CC1SC(=O)NC1=O)Oc1ccc(/C=N/NC(=O)c2cccc(Cl)c2)cc1` (stereo not drawn) gave an MIC [1] of 128 µg/mL.
In the case of `CCOc1cc(/C=N/NC(=O)c2ccncc2)ccc1OC(=O)CC1SC(=O)NC1=O` (stereo not drawn), the Stabilty [5] is reported as “Stable”, the selectivity ratio [2] is reported as 50.9 and the MIC [1] is reported as 1 µg/mL. The IC50 (Vero) was 50.9 µg/mL (≈ 115 µM) and the Retention_time [6] was 7.64 min.
With `O=C(CC1SC(=O)NC1=O)Oc1ccc(/C=N/NC(=O)c2ccncc2)cc1Cl` (stereo not drawn) the selectivity ratio [2] was 31.9, the MIC [1] was 1 µg/mL and the Retention_time [7] was 7.59 min. For the same compound, the IC50 (Vero) was 31.9 µg/mL (≈ 73.7 µM) and the Stabilty [8] was “Stable”.
With `O=C(/C=C1/SC(=O)NC1=O)Oc1ccccc1/C=N/NC(=O)c1ccccn1` the MIC [1] was 16 µg/mL.
In the case of `COc1cc(/C=N/NC(=O)c2ccncc2)ccc1OC(=O)CC1SC(=O)NC1=O` (stereo not drawn), the Stabilty [9] is reported as “Stable”, the selectivity ratio [2] is reported as 203 and the MIC [1] is reported as 1 µg/mL. The IC50 (Vero) was 203 µg/mL (≈ 475 µM).
With `O=C(CC1SC(=O)NC1=O)Oc1ccc(/C=N/NC(=O)c2ccc(Br)cc2)cc1` (stereo not drawn) the MIC [1] was 256 µg/mL.
Work on `O=C(CC1SC(=O)NC1=O)Oc1ccc(/C=N/NC(=O)c2ccc(Cl)cc2)cc1` (stereo not drawn) yielded an MIC [1] of 128 µg/mL.
For `O=C(/C=C1/SC(=O)NC1=O)Oc1cccc(/C=N\NC(=O)c2ccncc2)c1`, the Retention_time [10] was 4.36 min, the selectivity ratio [2] was 143 and the MIC [1] was 1 µg/mL. For the same compound, the Stabilty [11] was “Stable” and the IC50 (Vero) was 143 µg/mL (≈ 361 µM).
With `O=C(CC1SC(=O)NC1=O)Oc1ccc(/C=N/NC(=O)c2ccncc2)cc1Br` (stereo not drawn) the Retention_time [12] was 8.8 min, the Stabilty [13] was “Stable” and the selectivity ratio [2] was 190. It also gave an MIC [1] of 1 µg/mL and an IC50 (Vero) of 190 µg/mL (≈ 398 µM).
Work on `O=C(CC1SC(=O)NC1=O)Oc1ccc(/C=N/NC(=O)c2cccnc2)cc1Cl` (stereo not drawn) yielded an MIC [1] of 512 µg/mL.
For `O=C(CC1SC(=O)NC1=O)Oc1ccc(/C=N/NC(=O)c2ccncc2)cc1` (stereo not drawn), the Stabilty [14] was “Stable”, the selectivity ratio [2] was 91.7 and the Retention_time [15] was 3.48 min. It also gave an MIC [1] of 1 µg/mL and an IC50 (Vero) of 91.7 µg/mL (≈ 230 µM).
For `O=C(/C=C1/SC(=O)NC1=O)Oc1ccccc1/C=N/NC(=O)c1cccnc1`, the MIC [1] was 128 µg/mL.
For `CC[C@@H](CO)NCCN[C@@H](CC)CO` [ETHAMBUTOL], the MIC [1] was 2 µg/mL.
Work on `NNC(=O)c1ccncc1` [ISONIAZID] yielded an MIC [1] of 0.25 µg/mL.
Compound `CO[C@H]1/C=C/O[C@@]2(C)Oc3c(C)c(O)c4c(O)c(c(/C=N/N5CCN(C)CC5)c(O)c4c3C2=O)NC(=O)/C(C)=C\C=C\[C@H](C)[C@H](O)[C@@H](C)[C@@H](O)[C@@H](C)[C@H](OC(C)=O)[C@@H]1C` [RIFAMPIN] has a selectivity ratio [2] of 34400, an MIC [1] of 0.004 µg/mL and an IC50 (Vero) of 138 µg/mL (≈ 167 µM).
`CN[C@@H]1[C@H](O[C@H]2[C@H](O[C@H]3[C@H](O)[C@@H](O)[C@H](N=C(N)N)[C@@H](O)[C@@H]3N=C(N)N)O[C@@H](C)[C@]2(O)C=O)O[C@@H](CO)[C@H](O)[C@H]1O` [STREPTOMYCIN] showed an MIC [1] of 0.5 µg/mL.
